What was measured:
Type in all cases: functional
Ostrinia nubilalis [1] = experiment: Antifeedant activity against Ostrinia nubilalis (European corn borer) larvae assessed as amount of weight gain by the insect at 0.20% of diet dry weight after 5 days relative to control
Ostrinia nubilalis [2] = experiment: Antifeedant activity against Ostrinia nubilalis (European corn borer) larvae assessed as amount of weight gain by the insect at 0.40% of diet dry weight after 5 days relative to control
Ostrinia nubilalis [3] = experiment: Antifeedant activity against Ostrinia nubilalis (European corn borer) larvae assessed as amount of weight gain by the insect at 0.60% of diet dry weight after 5 days relative to control
Ostrinia nubilalis [4] = experiment: Antifeedant activity against Ostrinia nubilalis (European corn borer) larvae assessed as amount of weight gain by the insect at 0.80% of diet dry weight after 5 days relative to control
Ostrinia nubilalis [5] = experiment: Antifeedant activity against Ostrinia nubilalis (European corn borer) larvae assessed as amount of food consumed at 0.10% of diet dry weight after 5 days relative to control
Ostrinia nubilalis [6] = experiment: Antifeedant activity against Ostrinia nubilalis (European corn borer) larvae assessed as amount of food consumed at 0.20% of diet dry weight after 5 days relative to control
Ostrinia nubilalis [7] = experiment: Antifeedant activity against Ostrinia nubilalis (European corn borer) larvae assessed as amount of food consumed at 0.40% of diet dry weight after 5 days relative to control
Ostrinia nubilalis [8] = experiment: Antifeedant activity against Ostrinia nubilalis (European corn borer) larvae assessed as amount of food consumed at 0.60% of diet dry weight after 5 days relative to control
Ostrinia nubilalis [9] = experiment: Antifeedant activity against Ostrinia nubilalis (European corn borer) larvae assessed as amount of food consumed at 0.80% of diet dry weight after 5 days relative to control
Ostrinia nubilalis [10] = experiment: Antifeedant activity against Ostrinia nubilalis (European corn borer) larvae assessed as feeding rate at 0.80% of diet dry weight after 5 days relative to control
Ostrinia nubilalis [11] = experiment: Antifeedant activity against Ostrinia nubilalis (European corn borer) larvae assessed as amount excreted at 0.10% of diet dry weight after 5 days relative to control
Ostrinia nubilalis [12] = experiment: Antifeedant activity against Ostrinia nubilalis (European corn borer) larvae assessed as amount excreted at 0.20% of diet dry weight after 5 days relative to control
Ostrinia nubilalis [13] = experiment: Antifeedant activity against Ostrinia nubilalis (European corn borer) larvae assessed as amount excreted at 0.40% of diet dry weight after 5 days relative to control
Ostrinia nubilalis [14] = experiment: Antifeedant activity against Ostrinia nubilalis (European corn borer) larvae assessed as amount excreted at 0.60% of diet dry weight after 5 days relative to control
Ostrinia nubilalis [15] = experiment: Antifeedant activity against Ostrinia nubilalis (European corn borer) larvae assessed as amount excreted at 0.80% of diet dry weight after 5 days relative to control
Ostrinia nubilalis [16] = experiment: Antifeedant activity against Ostrinia nubilalis (European corn borer) larvae assessed as amount of weight gain by the insect at 0.10% of diet dry weight after 5 days relative to control
Ostrinia nubilalis [17] = experiment: Effect on growth of female Ostrinia nubilalis (European corn borer) larvae assessed as pupal weight at 0.10% of diet dry weight after 6 days relative to control
Ostrinia nubilalis [18] = experiment: Effect on growth of male Ostrinia nubilalis (European corn borer) larvae assessed as pupal weight at 0.10% of diet dry weight after 6 days relative to control
Ostrinia nubilalis [19] = experiment: Effect on growth of female Ostrinia nubilalis (European corn borer) larvae assessed as pupal weight at 1% of diet dry weight after 6 days relative to control
Ostrinia nubilalis [20] = experiment: Effect on growth of male Ostrinia nubilalis (European corn borer) larvae assessed as pupal weight at 1% of diet dry weight after 6 days relative to control
Ostrinia nubilalis [21] = experiment: Effect on growth of female Ostrinia nubilalis (European corn borer) larvae assessed as larval duration at 0.001% of diet dry weight after 6 days relative to control
Ostrinia nubilalis [22] = experiment: Effect on growth of male Ostrinia nubilalis (European corn borer) larvae assessed as larval duration at 0.001% of diet dry weight after 6 days relative to control
Ostrinia nubilalis [23] = experiment: Effect on growth of female Ostrinia nubilalis (European corn borer) larvae assessed as larval duration at 0.01% of diet dry weight after 6 days relative to control
Ostrinia nubilalis [24] = experiment: Effect on growth of male Ostrinia nubilalis (European corn borer) larvae assessed as larval duration at 0.01% of diet dry weight after 6 days relative to control
Ostrinia nubilalis [25] = experiment: Effect on growth of female Ostrinia nubilalis (European corn borer) larvae assessed as larval duration at 0.10% of diet dry weight after 6 days relative to control
Ostrinia nubilalis [26] = experiment: Effect on growth of male Ostrinia nubilalis (European corn borer) larvae assessed as larval duration at 0.10% of diet dry weight after 6 days relative to control
Ostrinia nubilalis [27] = experiment: Effect on growth of female Ostrinia nubilalis (European corn borer) larvae assessed as larval duration at 1% of diet dry weight after 6 days relative to control
Ostrinia nubilalis [28] = experiment: Effect on growth of male Ostrinia nubilalis (European corn borer) larvae assessed as larval duration at 1% of diet dry weight after 6 days relative to control
Ostrinia nubilalis [29] = experiment: Antifeedant activity against Ostrinia nubilalis (European corn borer) larvae assessed as excretion rate at 0.10% of diet dry weight after 5 days relative to control
Ostrinia nubilalis [30] = experiment: Antifeedant activity against Ostrinia nubilalis (European corn borer) larvae assessed as excretion rate at 0.20% of diet dry weight after 5 days relative to control
Ostrinia nubilalis [31] = experiment: Antifeedant activity against Ostrinia nubilalis (European corn borer) larvae assessed as excretion rate at 0.40% of diet dry weight after 5 days relative to control
Ostrinia nubilalis [32] = experiment: Antifeedant activity against Ostrinia nubilalis (European corn borer) larvae assessed as excretion rate at 0.60% of diet dry weight after 5 days relative to control
Ostrinia nubilalis [33] = experiment: Antifeedant activity against Ostrinia nubilalis (European corn borer) larvae assessed as excretion rate at 0.80% of diet dry weight after 5 days relative to control
Ostrinia nubilalis [34] = experiment: Antifeedant activity against Ostrinia nubilalis (European corn borer) larvae assessed as growth rate at 0.10% of diet dry weight after 5 days relative to control
Ostrinia nubilalis [35] = experiment: Antifeedant activity against Ostrinia nubilalis (European corn borer) larvae assessed as growth rate at 0.20% of diet dry weight after 5 days relative to control
Ostrinia nubilalis [36] = experiment: Antifeedant activity against Ostrinia nubilalis (European corn borer) larvae assessed as growth rate at 0.40% of diet dry weight after 5 days relative to control
Ostrinia nubilalis [37] = experiment: Antifeedant activity against Ostrinia nubilalis (European corn borer) larvae assessed as growth rate at 0.60% of diet dry weight after 5 days relative to control
Ostrinia nubilalis [38] = experiment: Antifeedant activity against Ostrinia nubilalis (European corn borer) larvae assessed as growth rate at 0.80% of diet dry weight after 5 days relative to control
Ostrinia nubilalis [39] = experiment: Antifeedant activity against Ostrinia nubilalis (European corn borer) larvae assessed as feeding rate at 0.10% of diet dry weight after 5 days relative to control
Ostrinia nubilalis [40] = experiment: Antifeedant activity against Ostrinia nubilalis (European corn borer) larvae assessed as feeding rate at 0.20% of diet dry weight after 5 days relative to control
Ostrinia nubilalis [41] = experiment: Antifeedant activity against Ostrinia nubilalis (European corn borer) larvae assessed as feeding rate at 0.40% of diet dry weight after 5 days relative to control
Ostrinia nubilalis [42] = experiment: Antifeedant activity against Ostrinia nubilalis (European corn borer) larvae assessed as feeding rate at 0.60% of diet dry weight after 5 days relative to control
Ostrinia nubilalis [43] = experiment: Insecticidal activity against Ostrinia nubilalis (European corn borer) larvae assessed as mortality at 0.10 to 0.80% of diet dry weight after 5 days relative to control
Ostrinia nubilalis [44] = experiment: Effect on growth of female Ostrinia nubilalis (European corn borer) larvae assessed as adult emergence at 0.001% of diet dry weight after 6 days relative to control
Ostrinia nubilalis [45] = experiment: Effect on growth of male Ostrinia nubilalis (European corn borer) larvae assessed as adult emergence at 0.001% of diet dry weight after 6 days relative to control
Ostrinia nubilalis [46] = experiment: Effect on growth of female Ostrinia nubilalis (European corn borer) larvae assessed as adult emergence at 0.01% of diet dry weight after 6 days relative to control
Ostrinia nubilalis [47] = experiment: Effect on growth of male Ostrinia nubilalis (European corn borer) larvae assessed as adult emergence at 0.01% of diet dry weight after 6 days relative to control
Ostrinia nubilalis [48] = experiment: Effect on growth of female Ostrinia nubilalis (European corn borer) larvae assessed as adult emergence at 0.10% of diet dry weight after 6 days relative to control
Ostrinia nubilalis [49] = experiment: Effect on growth of male Ostrinia nubilalis (European corn borer) larvae assessed as adult emergence at 0.10% of diet dry weight after 6 days relative to control
Ostrinia nubilalis [50] = experiment: Effect on growth of female Ostrinia nubilalis (European corn borer) larvae assessed as adult emergence at 1% of diet dry weight after 6 days relative to control
Ostrinia nubilalis [51] = experiment: Effect on growth of male Ostrinia nubilalis (European corn borer) larvae assessed as adult emergence at 1% of diet dry weight after 6 days relative to control
Ostrinia nubilalis [52] = experiment: Effect on growth of female Ostrinia nubilalis (European corn borer) larvae assessed as pupal duration at 0.001% of diet dry weight after 6 days relative to control
Ostrinia nubilalis [53] = experiment: Effect on growth of male Ostrinia nubilalis (European corn borer) larvae assessed as pupal duration at 0.001% of diet dry weight after 6 days relative to control
Ostrinia nubilalis [54] = experiment: Effect on growth of female Ostrinia nubilalis (European corn borer) larvae assessed as pupal duration at 0.01% of diet dry weight after 6 days relative to control
Ostrinia nubilalis [55] = experiment: Effect on growth of male Ostrinia nubilalis (European corn borer) larvae assessed as pupal duration at 0.01% of diet dry weight after 6 days relative to control
Ostrinia nubilalis [56] = experiment: Effect on growth of female Ostrinia nubilalis (European corn borer) larvae assessed as pupal duration at 0.10% of diet dry weight after 6 days relative to control
Ostrinia nubilalis [57] = experiment: Effect on growth of male Ostrinia nubilalis (European corn borer) larvae assessed as pupal duration at 0.10% of diet dry weight after 6 days relative to control
Ostrinia nubilalis [58] = experiment: Effect on growth of female Ostrinia nubilalis (European corn borer) larvae assessed as pupal duration at 1% of diet dry weight after 6 days relative to control
Ostrinia nubilalis [59] = experiment: Effect on growth of male Ostrinia nubilalis (European corn borer) larvae assessed as pupal duration at 1% of diet dry weight after 6 days relative to control
Ostrinia nubilalis [60] = experiment: Effect on growth of female Ostrinia nubilalis (European corn borer) larvae assessed as pupal weight at 0.001% of diet dry weight after 6 days relative to control
Ostrinia nubilalis [61] = experiment: Effect on growth of male Ostrinia nubilalis (European corn borer) larvae assessed as pupal weight at 0.001% of diet dry weight after 6 days relative to control
Ostrinia nubilalis [62] = experiment: Effect on growth of female Ostrinia nubilalis (European corn borer) larvae assessed as pupal weight at 0.01% of diet dry weight after 6 days relative to control
Ostrinia nubilalis [63] = experiment: Effect on growth of male Ostrinia nubilalis (European corn borer) larvae assessed as pupal weight at 0.01% of diet dry weight after 6 days relative to control

Compound: CC(C)=CCc1c2c(c3occ(-c4ccc(O)c(O)c4)c(=O)c3c1O)C=CC(C)(C)O2 [POMIFERIN]
- Activity (Ostrinia nubilalis [1]): 17.7%
- Activity (Ostrinia nubilalis [2]): 18.2%
- Activity (Ostrinia nubilalis [3]): 31.5%
- Activity (Ostrinia nubilalis [4]): 36.5%
- Activity (Ostrinia nubilalis [5]): 33.2%
- Activity (Ostrinia nubilalis [6]): 36.9%
- Activity (Ostrinia nubilalis [7]): 34.2%
- Activity (Ostrinia nubilalis [8]): 38.5%
- Activity (Ostrinia nubilalis [9]): 40.1%
- Activity (Ostrinia nubilalis [10]): 20.7%
- Activity (Ostrinia nubilalis [11]): 30.4%
- Activity (Ostrinia nubilalis [12]): 8.2%
- Activity (Ostrinia nubilalis [13]): 5.4%
- Activity (Ostrinia nubilalis [14]): 16.1%
- Activity (Ostrinia nubilalis [15]): 23%
- Activity (Ostrinia nubilalis [16]): 38.1%
- Activity (Ostrinia nubilalis [17]): 100 mg
- Activity (Ostrinia nubilalis [18]): 74 mg
- Activity (Ostrinia nubilalis [19]): 109 mg
- Activity (Ostrinia nubilalis [20]): 72 mg
- Time (Ostrinia nubilalis [21]): 11.7 days
- Time (Ostrinia nubilalis [22]): 10.7 days
- Time (Ostrinia nubilalis [23]): 11.7 days
- Time (Ostrinia nubilalis [24]): 10.9 days
- Time (Ostrinia nubilalis [25]): 12.1 days
- Time (Ostrinia nubilalis [26]): 11.1 days
- Time (Ostrinia nubilalis [27]): 12.9 days
- Time (Ostrinia nubilalis [28]): 11.2 days
- Activity (Ostrinia nubilalis [29]): 0%
- Activity (Ostrinia nubilalis [30]): -7%
- Activity (Ostrinia nubilalis [31]): -12%
- Activity (Ostrinia nubilalis [32]): -12%
- Activity (Ostrinia nubilalis [33]): -10%
- Activity (Ostrinia nubilalis [34]): 13.3%
- Activity (Ostrinia nubilalis [35]): 4.7%
- Activity (Ostrinia nubilalis [36]): 5.3%
- Activity (Ostrinia nubilalis [37]): 10%
- Activity (Ostrinia nubilalis [38]): 12%
- Activity (Ostrinia nubilalis [39]): -1%
- Activity (Ostrinia nubilalis [40]): 34.6%
- Activity (Ostrinia nubilalis [41]): 29%
- Activity (Ostrinia nubilalis [42]): 23.2%
- mortality (Ostrinia nubilalis [43]): <=11%
- Activity (Ostrinia nubilalis [44]): 50%
- Activity (Ostrinia nubilalis [45]): 78%
- Activity (Ostrinia nubilalis [46]): 54%
- Activity (Ostrinia nubilalis [47]): 67%
- Activity (Ostrinia nubilalis [48]): 67%
- Activity (Ostrinia nubilalis [49]): 25%
- Activity (Ostrinia nubilalis [50]): 67%
- Activity (Ostrinia nubilalis [51]): 60%
- Time (Ostrinia nubilalis [52]): 6.7 days
- Time (Ostrinia nubilalis [53]): 7 days
- Time (Ostrinia nubilalis [54]): 7 days
- Time (Ostrinia nubilalis [55]): 7.2 days
- Time (Ostrinia nubilalis [56]): 6.3 days
- Time (Ostrinia nubilalis [57]): 7.5 days
- Time (Ostrinia nubilalis [58]): 6.4 days
- Time (Ostrinia nubilalis [59]): 6.7 days
- Activity (Ostrinia nubilalis [60]): 85 mg
- Activity (Ostrinia nubilalis [61]): 76 mg
- Activity (Ostrinia nubilalis [62]): 96 mg
- Activity (Ostrinia nubilalis [63]): 72 mg

From ChEMBL document CHEMBL3045511, “Effects of Two Isoflavonoids, Osajin and Pomiferin, from Maclura pomifera for Growth and Feeding Disruption in Ostrinia nubilalis” (2001)
